Results taken from paper PMC7729195, “Pharmacodynamic Functions of Synthetic Derivatives for Treatment of Methicillin-Resistant Staphylococcus aureus (MRSA) and Mycobacterium tuberculosis” (Frontiers in Microbiology, 2020).
≈ marks a conversion by molar mass, not a printed value. Where “and” joins values, the source holds several entries; their conditions need not be identical. Equal entries are not always repeated.

What was measured:
MRSA [1] = assay: Time-kill study against MRSA; format: cell-based, Staphylococcus aureus; settings: for Bactericidal character: conclusion of time-kill studies; for Effect of sub-inhibitory combination with vancomycin on MRSA growth: sub-inhibitory combinations with vancomycin; for Concentration at which killing was observed: time-kill, MRSA
M. tuberculosis H37Rv [2] = assay: Bacterial inhibition assay (resazurin), MIC against M. tuberculosis; format: cell-based, Mycobacterium tuberculosis; parameters: MIC for TB. H37Rv: unit not given here; settings: for MIC: Mycobacterium tuberculosis, H37RV, 168 h; for MIC / MIC M. tuberculosis: synthetic compounds, 7 days incubation; for MIC for TB. H37Rv: Table 6 summary
A549 = format: cell-based; settings: human, 7 days
Description: (§1) Human alveolar epithelial cells (A549), ([Giard et al., 1973]), Madin-Darby canine kidney epithelial cells (MDCK), ([Gaush et al., 1966]), human leukemia cells (THP-1) ([Tsuchiya et al., 1980]), human hepatocellular carcinoma cells (Hep-G2), ([Aden et al., 1979]), and human embryonic kidney cells 293 (HEK293) ([Graham et al., 1977]) were grown and differentiated in complete RPMI (Roswell Park Memorial Institute Medium) and DMEM (Dulbecco’s Modified Eagle’s medium) tissue culture media (RPMIc and DMEMc). To determine toxicity of the AIMS extract library, 2 × 10^5 of each cell type were added to a 96-well plate and left for 48 h at 37°C to adhere. Extract samples at a final concentration of 0.5 mg mL^–1 were added to the wells, then incubated for 7 days in a humidified 5% CO2 incubator at 37°C. Then resazurin (10 μL of 0.05% w/v) was added, and after 4 h, fluorescence measured as described previously. Cell viability was calculated as percentage fluorescence relative to untreated cells.

THP1 = format: cell-based; settings: human, 7 days
Description: as §1

HepG2 = format: cell-based; settings: human, 7 days
Description: as §1

HEK 293 = format: cell-based; settings: human, 7 days
Description: as §1

MRSA [3] = assay: Checkerboard assay with vancomycin against MRSA; format: cell-based, Staphylococcus aureus; settings: for FIC / MIC50 / Drug–drug interactions: MRSA; for FIC / Drug–drug interactions: compound with vancomycin; for MIC50: Staphylococcus aureus, compound alone; for Activity against MRSA in combination with vancomycin: vancomycin plus compound
resistant strains = assay: MIC against resistant strains; format: cell-based; settings: read-out: MIC against resistant strains
[4] = test system: A549, THP-1, HepG2 and HEK 293 cell lines; format: cell-based, human
Description: as §1

TB. H37Rv = assay: Minimum bactericidal concentration (MBC) for TB; format: cell-based, Mycobacterium tuberculosis; parameters: unit not given here; settings: sub-culture on agar, 7 days
E. coli EC958 = assay: Bacterial inhibition assay (resazurin), MIC against E. coli; format: cell-based, Escherichia coli; settings: synthetic compounds, 18 h incubation; for MIC: Escherichia coli, EC958
M. tuberculosis = assay: Time-kill study against M. tuberculosis; format: cell-based, Mycobacterium tuberculosis; settings: for Effect on bacterial viability: compound treatment, day 6; for Killing effect with rifampicin: rifampicin plus compound, day 7 of treatment
Description: Time-kill experiments were performed by culturing MRSA and M. tuberculosis in liquid medium in the presence of six synthesized sample concentrations in doubling dilutions ranging from 8 to 0.001 × MIC and 2 × MIC for both bacteria, respectively. Growth curves were initially generated to confirm that bacteria would reach a stable early- to mid-log phase after 2 and 48 h of pre-incubation in antimicrobial-free both medium, respectively. Samples were taken in different incubation times after drug exposure at 0, 2, 4, 6, 8, and 24 h for MRSA and 24, 48 h, and 4 and 6 days for M. tuberculosis and then plated onto agar plates for CFU determination. The experiments were carried out in duplicate and repeated three times.

M. tuberculosis H37Rv [5] = assay: Checkerboard assay with rifampicin against M. tuberculosis; format: cell-based, Mycobacterium tuberculosis; settings: for Drug–drug interactions / FIC: M. tuberculosis, compound with rifampicin; for MIC50: Mycobacterium tuberculosis, H37RV, read-out: Compound alone MIC50 for M. tuberculosis
MRSA [6] = assay: Minimum bactericidal concentration (MBC) for MRSA; format: cell-based, Staphylococcus aureus; parameters: unit not given here; settings: sub-culture on agar, 18 h
P. aeruginosa PAO1 = assay: Bacterial inhibition assay (resazurin), MIC against P. aeruginosa; format: cell-based, Pseudomonas aeruginosa; settings: synthetic compounds, 18 h incubation; for MIC: Pseudomonas aeruginosa, PAO1
MRSA [7] = assay: Bacterial inhibition assay (resazurin), MIC against MRSA; format: cell-based, Staphylococcus aureus; parameters: MIC for MRSA: unit not given here; settings: for MIC: Staphylococcus aureus, MRSA, synthetic compounds, 18 h incubation; for MIC for MRSA: Table 6 summary
[8] = compound 12.5 μM plus vancomycin 50 μg mL^–1

Compound | Effect of sub-inhibitory combination with vancomycin on MRSA growth (MRSA [1]) | MIC (M. tuberculosis H37Rv [2]) | MIC for TB. H37Rv (M. tuberculosis H37Rv [2]) | Minimum toxicity concentration of drug (MTC) A549 (A549) | Minimum toxicity concentration of drug (MTC) THP1 (THP1) | Minimum toxicity concentration of drug (MTC) HepG2 (HepG2) | Minimum toxicity concentration of drug (MTC) HEK 293 (HEK 293) | FIC (MRSA [3]) | MIC50 (MRSA [3]) | Toxicity against THP1 and/or HEK 293 cells [4] | MBC for TB. H37Rv (TB. H37Rv) | MIC (E. coli EC958) | Effect on bacterial viability (M. tuberculosis) | Drug–drug interactions (M. tuberculosis H37Rv [5]) | FIC (M. tuberculosis H37Rv [5]) | MIC50 (M. tuberculosis H37Rv [5]) | MBC for MRSA (MRSA [6]) | MIC (P. aeruginosa PAO1) | MIC (MRSA [7]) | MIC for MRSA (MRSA [7]) | also measured
CCCCCCCCN(CCCCCCCC)c1cccc(C)c1 [Compound 1a, N,N-Dioctyl-3-Methylaniline] | substantially inhibited growth of MRSA | 1.5 ± 3 µM (≈ 0.497 µg/mL) | 1.5 | >100 ± 4.1 µM | 50 ± 2.0 µM | >100 ± 3.0 µM | 50 ± 0.9 µM | 0.45 | 12.5 µM | some toxicity | 25 | 12.5 ± 5 µM (≈ 4.14 µg/mL) | significant reduction in bacterial viability | Indifference (0.25–4 indifferent or additive activity) | 1.1 | 1.5 µM | 25 | 6.2 ± 9 µM (≈ 2.06 µg/mL) | 12.5 ± 1 µM (≈ 4.14 µg/mL) | 12.5 | Bactericidal character (MRSA [1]): strongly bactericidal and concentration dependent; Activity against MRSA in combination with vancomycin (MRSA [3]): bactericidal activity; MIC (resistant strains): 6.7 to 20 µM (≈ 2.22 to 6.63 µg/mL); MTC on all cell lines tested ([4]; human, 7 days): 50 to 100 µM
CCCCCCCCN(CCCCCCCC)c1ccc(C)cc1 [Compound 1b, N,N-Dioctyl-4-Methylaniline] | substantially inhibited growth of MRSA | 25 ± 1 µM (≈ 8.29 µg/mL) | 6.25 | >100 ± 3.8 µM | >100 ± 2.0 µM | >100 ± 0.9 µM | >100 ± 6.0 µM | 1.2 | 100 µM |  | 100 | 100 ± 1 µM (≈ 33.2 µg/mL) | significant reduction in bacterial viability | Indifference (0.25–4 indifferent or additive activity) | 1.1 | 6.25 µM | 200 | 100 ± 6.5 µM (≈ 33.2 µg/mL) | 100 ± 5.4 µM (≈ 33.2 µg/mL) | 100 | Time-kill effect against log-phase MRSA (MRSA [1]; 100 μM): rapidly reduced growth by 1 h post-treatment; Effect on regrowth of MRSA (MRSA [1]; [8]): substantially reduced regrowth; Drug–drug interactions (MRSA [3]): Indifference (0.25–4 indifferent or additive activity); Toxicity against all four cell lines [4]: low toxicity
CCCCCCCCCCN(CCCCCC)CCCCCC [Compound 3, N,N-Dihexyldecan-1-Amine] | substantially inhibited growth of MRSA | 3.1 µM (≈ 1.01 µg/mL) | 1.5 | >100 ± 2.0 µM | 50 ± 5.0 µM | >100 ± 1.0 µM | 25 ± 2.0 µM | 1.2 | 12.5 µM | some toxicity | 6.25 | 6.2 µM (≈ 2.02 µg/mL) | significant reduction in bacterial viability |  | 0.4 | 1.5 µM | 12.5 | 3.1 µM (≈ 1.01 µg/mL) | 12.5 ± 1 µM (≈ 4.07 µg/mL) | 12.5 | Bactericidal character (MRSA [1]): strongly bactericidal and concentration dependent; Concentration at which killing was observed (MRSA [1]): 12.5 μg mL^–1; MIC M. tuberculosis (M. tuberculosis H37Rv [2]): 3.1 ± 0.7 µM (≈ 1.01 µg/mL); Drug–drug interactions (MRSA [3]): Indifference (0.25–4 indifferent or additive activity); MIC E. coli (E. coli EC958): 6.2 ± 1.0 µM (≈ 2.02 µg/mL); Killing effect with rifampicin (M. tuberculosis): comparable killing effects; Effect against M. tuberculosis in combination with rifampicin (M. tuberculosis H37Rv [5]; rifampicin plus compound): synergistic or bactericidal effects; MIC P. aeruginosa (P. aeruginosa PAO1): 3.1 ± 5.0 µM (≈ 1.01 µg/mL)
CCCCCCCCN(CCCCCCCC)CCCCCCCC [Compound 13, N,N,N-Trioctylammonium Chloride] | substantially inhibited growth of MRSA | 0.02 µM | 0.02 | 50 ± 1.4 µM | 3.1 ± 0.7 µM | >100 ± 5.2 µM | 6.5 ± 3.0 µM |  | 12.5 µM | some toxicity | 0.39 | 25 ± 2 µM |  | Indifference (0.25–4 indifferent or additive activity) | 1.1 | 0.02 µM | 100 | 25 ± 4 µM | 12.5 ± 2.7 µM | 12.5 | Concentration at which killing was observed (MRSA [1]): > 100 μg mL^–1; MIC M. tuberculosis (M. tuberculosis H37Rv [2]): 0.02 ± 1.1 µM; Drug–drug interactions (MRSA [3]): Indifference (0.25–4 indifferent or additive activity); MIC (resistant strains): ≥ 0.24 µM; Killing effect with rifampicin (M. tuberculosis): comparable killing effects
CCCCCCCCN(CCCCCCCC)Cc1ccccc1 [Compound 2a, N-Benzyl-N-Octyloctan-1Amine] | substantially inhibited growth of MRSA | 1.5 ± 1 µM (≈ 0.497 µg/mL) | 1.5 | >100 ± 1.0 µM | 6.5 ± 0.8 µM | >100 ± 0.8 µM | 50 ± 4.0 µM | 0.328 and 0.33 | 12.5 µM | some toxicity | 25 | 50 ± 1 µM (≈ 16.6 µg/mL) | significant reduction in bacterial viability | Indifference (0.25–4 indifferent or additive activity) | 1.1 | 1.5 µM | 100 | 50 ± 1 µM (≈ 16.6 µg/mL) | 12.5 ± 0.7 µM (≈ 4.14 µg/mL) | 12.5 | Time to bactericidal effect (MRSA [1]; [8]): 1 h; Net-growth of MRSA (MRSA [1]; compound 1.5 to 0.1 μM plus vancomycin 50 μg mL^–1, at 24 h): up to 102 CFU mL^–1; Bactericidal character (MRSA [1]): strongly bactericidal and concentration dependent; Activity against MRSA in combination with vancomycin (MRSA [3]): bactericidal activity
CN[C@H](CC(C)C)C(=O)N[C@H]1C(=O)N[C@@H](CC(N)=O)C(=O)N[C@H]2C(=O)N[C@H]3C(=O)N[C@H](C(=O)N[C@H](C(=O)O)c4cc(O)cc(O)c4-c4cc3ccc4O)[C@H](O)c3ccc(c(Cl)c3)Oc3cc2cc(c3O[C@@H]2O[C@H](CO)[C@@H](O)[C@H](O)[C@H]2O[C@H]2C[C@](C)(N)[C@H](O)[C@H](C)O2)Oc2ccc(cc2Cl)[C@H]1O [vancomycin, Vancomycin, reference compound] |  |  |  |  |  |  |  |  |  |  |  |  |  |  |  |  |  |  |  |  | Viable count after regrowth (MRSA [1]; 50 μg mL^–1, after 24h): 106 CFU mL^–1; Time-kill effect against MRSA (MRSA [1]; 100 μg mL^–1 at 24 h): bactericidal effect; Time-kill effect against MRSA compared to untreated bacteria (MRSA [1]; concentrations up to 50 μg mL^–1): did not have an antibacterial effect
